# Measurements from patent publication US20230303549A1, “SUBSTITUTED HETEROARYLOXYPYRIDINES, THE SALTS THEREOF AND THEIR USE AS HERBICIDAL AGENTS” (Bayer Aktiengesellschaft, priority 2020, published 2023).
# Legend:
# Format in all cases: in vivo
# [1] = test system: Digitaria sanguinalis (DIGSA); assay: Pre-emergence herbicide efficacy at 80 g/ha, greenhouse pot test; details: visual scoring vs untreated control after about 3 weeks
# Excerpt: (§1) Seeds of monocotyledonous and dicotyledonous weed plants and crop plants were placed in plastic or organic planting pots and covered with soil. The compounds of the invention, formulated in the form of wettable powders (WP) or as emulsion concentrates (EC), were then applied to the surface of the covering soil as aqueous suspension or emulsion with addition of 0.5% additive at a water application rate of […] (converted). After the treatment, the pots were placed in a greenhouse and kept under good growth conditions for the test plants. After about 3 weeks, the effect of the preparations was scored visually in comparison with untreated controls as percentages. For example, 100% activity=the plants have died, 0% activity=like control plants. Tables D1 to D12 below show the effects of selected compounds of the general formula (I) according to Table 1 on various harmful plants and an application rate corresponding to 80 g/ha, which were obtained by the experimental procedure mentioned above.
# [2] = test system: Abutilon theophrasti (ABUTH); assay: as above; details: visual scoring vs untreated control after about 3 weeks
# Excerpt: as §1
# Viola tricolor (VIOTR) [3] = assay: as above; details: visual scoring vs untreated control after about 3 weeks
# Excerpt: as §1
# [4] = test system: Polygonum convolvulus (POLCO); assay: as above; details: visual scoring vs untreated control after about 3 weeks
# Excerpt: as §1
# [5] = test system: Matricaria inodora (MATIN); assay: as above; details: visual scoring vs untreated control after about 3 weeks
# Excerpt: as §1
# [6] = test system: Amaranthus retroflexus (AMARE); assay: as above; details: visual scoring vs untreated control after about 3 weeks
# Excerpt: as §1
# [7] = test system: Alopecurus myosuroides (ALOMY); assay: Post-emergence herbicidal efficacy at 80 g/ha, greenhouse pot test; details: visual rating vs untreated control after about 3 weeks
# Method: (§2) Seeds of monocotyledonous and dicotyledonous weeds and crop plants were placed in sandy loam in plastic or organic planting pots, covered with soil and cultivated in a greenhouse under controlled growth conditions. 2 to 3 weeks after sowing, the test plants were treated at the one-leaf stage. The compounds of the invention, formulated in the form of wettable powders (WP) or as emulsion concentrates (EC), were then sprayed onto the green parts of the plants as aqueous suspension or emulsion with addition of 0.5% additive at a water application rate of 600 l/ha (converted). After the test plants had been kept in the greenhouse under optimum growth conditions for about 3 weeks, the activity of the preparations was rated visually in comparison to untreated controls. For example, 100% activity=the plants have died, 0% activity=like control plants. Tables B1 to B6 below show the effects of selected compounds of the general formula (I) according to Table 1 on various harmful plants and an application rate corresponding to 80 g/ha, which were obtained by the experimental procedure mentioned above.
# Viola tricolor (VIOTR) [8] = assay: as above; details: visual rating vs untreated control after about 3 weeks
# Method: as §2
# [9] = test system: Digitaria sanguinalis (DIGSA); assay: Post-emergence herbicidal efficacy at 320 g/ha, greenhouse pot test; details: visual rating vs untreated control after about 3 weeks
# Summary of the method: (§3)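 Post-emergence foliar spray on one-leaf-stage weeds, 2 to 3 weeks from sowing, using WP or EC preparations with 0.5% additive. Damage was judged by eye after roughly 3 weeks compared with untreated controls.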
# Veronica persica (VERPE) [10] = assay: as above; details: 320 g/ha, visual rating vs untreated control after about 3 weeks
# Summary of the method: as §3
# Poa annua (POAAN) [11] = assay: as above; details: visual rating vs untreated control after about 3 weeks
# Summary of the method: as §3
# Lolium rigidum (LOLRI) = assay: Pre-emergence herbicide efficacy at 320 g/ha, greenhouse pot test; details: visual scoring vs untreated control after about 3 weeks
# Summary of the method: (§4)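 Visual percent activity versus untreated controls, rated roughly 3 weeks post-treatment in greenhouse (0% = like control, 100% = dead). Pre-emergence application to covering sandy loam soil as aqueous suspension/emulsion, 600 L/ha, plus 0.5% additive.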
# [12] = test system: Digitaria sanguinalis (DIGSA); assay: as above; details: visual scoring vs untreated control after about 3 weeks
# Summary of the method: as §4
# Stellaria media (STEME) [13] = assay: as above; details: visual scoring vs untreated control after about 3 weeks
# Summary of the method: as §4
# Setaria viridis (SETVI) [14] = assay: as above; details: visual scoring vs untreated control after about 3 weeks
# Summary of the method: as §4
# Veronica persica (VERPE) [15] = assay: as above; details: visual scoring vs untreated control after about 3 weeks
# Summary of the method: as §4
# [16] = test system: Abutilon theophrasti (ABUTH); assay: as above; details: visual scoring vs untreated control after about 3 weeks
# Summary of the method: as §4
# [17] = test system: Matricaria inodora (MATIN); assay: as above; details: visual scoring vs untreated control after about 3 weeks
# Summary of the method: as §4
# Poa annua (POAAN) [18] = assay: as above; details: visual scoring vs untreated control after about 3 weeks
# Summary of the method: as §4
# [19] = test system: Echinochloa crus-galli (ECHCG); assay: as above; details: visual scoring vs untreated control after about 3 weeks
# Summary of the method: as §4
# [20] = test system: Amaranthus retroflexus (AMARE); assay: as above; details: visual scoring vs untreated control after about 3 weeks
# Summary of the method: as §4
# Bassia scoparia (KCHSC) [21] = assay: as above
# Summary of the method: as §4
# Setaria viridis (SETVI) [22] = assay: Pre-emergence herbicide efficacy at 80 g/ha, greenhouse pot test; details: visual scoring vs untreated control after about 3 weeks
# Excerpt: as §1
# Veronica persica (VERPE) [23] = assay: as above; details: visual scoring vs untreated control after about 3 weeks
# Excerpt: as §1
# [24] = test system: Echinochloa crus-galli (ECHCG); assay: as above; details: visual scoring vs untreated control after about 3 weeks
# Excerpt: as §1
# Setaria viridis (SETVI) [25] = assay: Post-emergence herbicidal efficacy at 80 g/ha, greenhouse pot test; details: visual rating vs untreated control after about 3 weeks
# Method: as §2
# [26] = test system: Amaranthus retroflexus (AMARE); assay: as above; details: visual rating vs untreated control after about 3 weeks
# Method: as §2
# Stellaria media (STEME) [27] = assay: Post-emergence herbicidal efficacy at 320 g/ha, greenhouse pot test; details: visual rating vs untreated control after about 3 weeks
# Summary of the method: as §3
# [28] = test system: Abutilon theophrasti (ABUTH); assay: as above; details: visual rating vs untreated control after about 3 weeks
# Summary of the method: as §3
# [29] = test system: Amaranthus retroflexus (AMARE); assay: as above; details: visual rating vs untreated control after about 3 weeks
# Summary of the method: as §3
# Bassia scoparia (KCHSC) [30] = assay: as above; details: visual rating vs untreated control after about 3 weeks
# Summary of the method: as §3
# [31] = test system: Alopecurus myosuroides (ALOMY); assay: Pre-emergence herbicide efficacy at 320 g/ha, greenhouse pot test; details: visual scoring vs untreated control after about 3 weeks
# Summary of the method: as §4
SMILES,Pre-emergence efficacy against Abutilon theophrasti (ABUTH) [2],Pre-emergence efficacy against Viola tricolor (VIOTR) (Viola tricolor (VIOTR) [3]),Pre-emergence efficacy against Polygonum convolvulus (POLCO) [4],Pre-emergence efficacy against Amaranthus retroflexus (AMARE) [6],Post-emergence efficacy against Veronica persica (VERPE) (Veronica persica (VERPE) [10]),Post-emergence efficacy against Poa annua (POAAN) (Poa annua (POAAN) [11]),Pre-emergence efficacy against Stellaria media (STEME) (Stellaria media (STEME) [13]),Pre-emergence efficacy against Setaria viridis (SETVI) (Setaria viridis (SETVI) [14]),Pre-emergence efficacy against Veronica persica (VERPE) (Veronica persica (VERPE) [15]),Pre-emergence efficacy against Abutilon theophrasti (ABUTH) [16],Pre-emergence efficacy against Matricaria inodora (MATIN) [17],Pre-emergence efficacy against Poa annua (POAAN) (Poa annua (POAAN) [18]),Pre-emergence efficacy against Echinochloa crus-galli (ECHCG) [19],Pre-emergence efficacy against Amaranthus retroflexus (AMARE) [20],also measured
Cc1cc(C)c(-c2cc(C(F)F)on2)c(Oc2ncc(Cl)cn2)n1 [Example I-10],90%,100%,90%,90%,90%,100%,100%,90%,100%,100%,100%,90%,100%,100%,"Pre-emergence efficacy against Digitaria sanguinalis (DIGSA) [1]: 90%; Pre-emergence efficacy against Matricaria inodora (MATIN) [5]: 90%; Post-emergence efficacy against Alopecurus myosuroides (ALOMY) [7]: 80%; Post-emergence efficacy against Viola tricolor (VIOTR) (Viola tricolor (VIOTR) [8]): 100%; Post-emergence efficacy against Digitaria sanguinalis (DIGSA) [9]: 100%; Pre-emergence efficacy against Lolium rigidum (LOLRI) (Lolium rigidum (LOLRI)): 90%; Pre-emergence efficacy against Digitaria sanguinalis (DIGSA) [12]: 90%; Pre-emergence efficacy against Bassia scoparia (KCHSC) (Bassia scoparia (KCHSC) [21]; 320 g/ha, visual scoring vs untreated control after about 3 weeks): 90%"
Cc1cc(C)c(-c2cc(C(F)F)no2)c(Oc2ncc(C(F)(F)F)cn2)n1 [Example I-45],90%,90%,80%,100%,100%,100%,100%,100%,100%,100%,100%,100%,100%,100%,"Pre-emergence efficacy against Setaria viridis (SETVI) (Setaria viridis (SETVI) [22]): 90%; Pre-emergence efficacy against Veronica persica (VERPE) (Veronica persica (VERPE) [23]): 80%; Pre-emergence efficacy against Echinochloa crus-galli (ECHCG) [24]: 80%; Post-emergence efficacy against Setaria viridis (SETVI) (Setaria viridis (SETVI) [25]): 80%; Post-emergence efficacy against Amaranthus retroflexus (AMARE) [26]: 80%; Post-emergence action against Stellaria media (STEME) (Stellaria media (STEME) [27]): 100%; Post-emergence efficacy against Abutilon theophrasti (ABUTH) [28]: 90%; Post-emergence efficacy against Amaranthus retroflexus (AMARE) [29]: 100%; Post-emergence efficacy against Bassia scoparia (KCHSC) (Bassia scoparia (KCHSC) [30]): 90%; Pre-emergence efficacy against Alopecurus myosuroides (ALOMY) [31]: 100%; Pre-emergence efficacy against Bassia scoparia (KCHSC) (Bassia scoparia (KCHSC) [21]; dosage 1280 g/ha in Table C6, visual scoring after about 3 weeks): 100%"
